Results from patent US7781419B2, “Use of bisphosphonates for otosclerosis” (priority 2003, dated 2010).
Like-named read-outs stand apart in the source and are kept apart here.

How the values were obtained:
[1] = tested on: otosclerosis patients with dizziness; experiment: Example 4: intravenous zolendronic acid, dizziness patients; format: in vivo, human; conditions: 4 mg per injection, after 4 to 12 months, 3 patients
Experimental: (§1) Patients were administered the bisphosphonate to see if dizziness could disappear or if associated symptoms of hearing loss or ear noise could be improved.
In a fourth study, the following populations having the symptom stated were administered a zolendronic acid injection in 4 mg per injection no more frequently than every three months. […] Some patients were also administered etidronate.
Dizziness after 4 to 12 Months

[2] = tested on: otosclerosis patients with hearing loss; conditions: 4 mg per injection, after 2 to 10 months, 5 patients (two also on etidronate)
Experimental: To illustrate the advantages of the invention, patients with the following symptoms were treated.
In a fourth study, the following populations having the symptom stated were administered a zolendronic acid injection in 4 mg per injection no more frequently than every three months. The frequency of administration was dependent upon the patient response and the impending indication. Some patients were also administered etidronate. All patients received calcium plus vitamin D and/or calcium plus fluoride throughout the treatment.
Hearing Loss after 2 to 10 Months

[3] = tested on: otosclerosis patients with Meniere's syndrome; experiment: Example 1: stepped-up risedronate, Meniere's syndrome patients; format: in vivo, human; conditions: 30 mg twice weekly, after 2 to 25 months, 36 patients
Experimental: (§2) In the first study, the following populations having the symptom stated were treated with a dosing schedule of 30 mg risedronate twice weekly (double the recommended dose for treating osteoporosis).

[4] = tested on: otosclerosis patients with tinnitus; experiment: Example 2: stepped-up risedronate follow-up, tinnitus patients; format: in vivo, human; conditions: 30 mg twice weekly, after 2 to 31 months, 84 patients
From the text: (§3) The second investigation is cumulative to the first investigation, i.e., some patients reported in Example 1 are included in Example 2.
Tinnitus or Ear Noise after 2 to 31 Months

[5] = tested on: otosclerosis patients with Meniere's syndrome; experiment: Example 2: stepped-up risedronate follow-up, Meniere's syndrome patients; format: in vivo, human; conditions: 30 mg twice weekly, after 2 to 33 months, 42 patients
From the text: as §3
Meniere's Syndrome after a Period of 2 to 33 Months

[6] = tested on: otosclerosis patients with dizziness; experiment: Example 2: stepped-up risedronate follow-up, dizziness patients; format: in vivo, human; conditions: 30 mg twice weekly, after 2 to 32 months, 155 patients
From the text: as §3
Dizziness after a Period of 2 to 32 Months

[7] = tested on: otosclerosis patients with tinnitus; experiment: Example 1: stepped-up risedronate, tinnitus patients; format: in vivo, human; conditions: 30 mg twice weekly, after 3 to 19 months, 29 patients
Experimental: This symptom can be a mild distraction, to an annoyance, to difficulty concentrating, to a total distraction. […] There are no current recognized treatments for tinnitus directed at a cause.
as §2
Tinnitus or Ear Noise after a Period of 3 to 19 Months

[8] = tested on: otosclerosis patients with hearing loss; experiment: Example 1: stepped-up risedronate, hearing loss patients; format: in vivo, human; conditions: 30 mg twice weekly, after 3 to 24 months, 46 patients
Experimental: as §2
Hearing Loss after a Period of 3 to 24 Months

[9] = tested on: otosclerosis patients with dizziness; experiment: Example 1: stepped-up risedronate, dizziness patients; format: in vivo, human; conditions: 30 mg twice weekly, after 3 to 25 months, 76 patients
Experimental: as §1, §2

[10] = tested on: otosclerosis patients with hearing loss; experiment: Example 2: stepped-up risedronate follow-up, hearing loss patients; format: in vivo, human; conditions: 30 mg twice weekly, after 3 to 31 months, 125 patients
From the text: as §3
Hearing Loss after a Period of 3 to 31 Months

For O=P(O)(O)C(O)(Cn1ccnc1)P(=O)(O)O [zolendronic acid], the relief of dizziness [1] was about 100%, the “patients with hearing unchanged” value [2] was 80% and the “patients with hearing worse” value [2] was 20%.
With O=P(O)(O)C(O)(Cc1cccnc1)P(=O)(O)O [risedronate, pyridiniyl bisphosphonate] the “clogging or fullness in the ear worse” value [3] was “no patient”, the “dizziness the same or worse” value [3] was “no instances” and the ear noise worse [3] was “no patient”. The “patients in whom clogging or fullness in the ear was not present” value [3] was 42%, the “patients whose clogging or fullness in the ear disappeared” value [3] was 17% and the “patients whose dizziness disappeared” value [3] was 50%. For the same molecule, the “patients whose ear noise cleared up” value [3] was 8%, the “patients with clogging or fullness in the ear better” value [3] was 22% and the “patients with clogging or fullness in the ear the same” value [3] was 19%. For the same molecule, the “patients with ear noise better” value [3] was 72%, the “patients with ear noise unchanged” value [3] was 19% and the “patients with hearing better” value [3] was 83%. For the same molecule, the “patients with hearing the same” value [3] was 8%, the “patients with hearing worse than with prior bisphosphonate treatment” value [3] was 8% and the “patients with improvement, regular lifestyle free of disabling dizziness” value [3] was 16%. The “improvement in tinnitus or ear noise” value [4] was 76%, the “patients with disappearance of tinnitus” value [4] was 5% and the “patients with reduction of tinnitus to a point where it was no longer a problem” value [4] was 71%. For the same molecule, the “patients with tinnitus the same” value [4] was 21%, the “patients with tinnitus worse” value [4] was 2% and the “clogging or fullness in the ear worse” value [5] was “no patients”. For the same molecule, the “dizziness the same or worse” value [5] was “no instances”, the “patients whose clogging or fullness in the ear disappeared” value [5] was 26% and the “patients whose dizziness disappeared” value [5] was 57%. The “patients with clogging or fullness in the ear better” value [5] was 19%, the “patients with clogging or fullness in the ear the same” value [5] was 7% and the “patients with ear noise better” value [5] was 60%. The “patients with ear noise gone” value [5] was 10%, the “patients with ear noise the same” value [5] was 19% and the “patients with ear noise worse” value [5] was 2%. The “patients with hearing better” value [5] was 69%, the “patients with hearing the same” value [5] was 14% and the “patients with hearing worse than with prior bisphosphonate treatment” value [5] was 12%. The “patients with improvement, regular lifestyle free of disabling dizziness” value [5] was 17%, the “patients whose dizziness disappeared” value [6] was 45% and the “patients with dizziness worse” value [6] was 2%. For the same molecule, the “patients with no change in dizziness” value [6] was 5%, the “patients with reduced dizziness, no problem in daily living” value [6] was 39% and the relief of dizziness [6] was 84%. The “improvement in tinnitus or ear noise” value [7] was 68%, the “patients with disappearance of tinnitus” value [7] was 7% and the “patients with reduction of tinnitus to a point where it was no longer a problem” value [7] was 62%. For the same molecule, the “patients with tinnitus the same” value [7] was 24%, the “patients with tinnitus worse” value [7] was 7% and the “patients with hearing improved” value [8] was 70%. For the same molecule, the “patients with hearing unchanged” value [8] was 24%, the “patients with hearing worse” value [8] was 6% and the “patients with disappearance of dizziness” value [9] was 38%. The “patients with dizziness worse” value [9] was 3%, the “patients with no change in dizziness” value [9] was 8% and the “patients with reduced dizziness, no problem in daily living” value [9] was 38%. The relief of dizziness [9] was “greater than 90%”, the “patients with hearing improved” value [10] was 51% and the “patients with hearing unchanged” value [10] was 47%. The “patients with hearing worse” value [10] was 2%.
